Measured values as given in the CheMixHub viscosity set.
Values joined by “and” are separate entries in the source; they are usually repeats but may differ in a detail not shown here. Identical values can stand only once.

Assay: xn = mol fraction of the nth substance listed

NCC(=O)O + O
viscosity
Conditions | 101 kPa | 101.33 kPa
293.15 K, x1 = 0.0194 | 1.181 mPa·s | –
293.15 K, x1 = 0.0294 | 1.272 mPa·s | –
293.15 K, x1 = 0.036 | 1.332 mPa·s | –
298.15 K, x1 = 0.0002174 | 0.8944 mPa·s and 0.8944 mPa·s | –
298.15 K, x1 = 0.0004 | 0.894 mPa·s | –
298.15 K, x1 = 0.0007 | 0.8972 mPa·s | –
298.15 K, x1 = 0.0009 | 0.8942 mPa·s | –
298.15 K, x1 = 0.0009413 | 0.9111 mPa·s and 0.9111 mPa·s | –
298.15 K, x1 = 0.00135 | 0.8968 mPa·s | –
298.15 K, x1 = 0.0018 | 0.8995 mPa·s | –
298.15 K, x1 = 0.002695 | 0.9053 mPa·s | –
298.15 K, x1 = 0.003657 | 0.9319 mPa·s and 0.9319 mPa·s | –
298.15 K, x1 = 0.005496 | 0.932 mPa·s and 0.932 mPa·s | –
298.15 K, x1 = 0.008976 | 0.9754 mPa·s and 0.9754 mPa·s | –
298.15 K, x1 = 0.0108 | 0.9757 mPa·s and 0.9757 mPa·s | –
298.15 K, x1 = 0.01215 | 0.9853 mPa·s and 0.9853 mPa·s | –
298.15 K, x1 = 0.01456 | 0.986 mPa·s and 0.986 mPa·s | –
303.15 K, x1 = 0.0003 | 0.803 mPa·s | –
303.15 K, x1 = 0.0004 | 0.8014 mPa·s | –
303.15 K, x1 = 0.0007 | 0.8046 mPa·s | –
303.15 K, x1 = 0.0009 | 0.801 mPa·s | –
303.15 K, x1 = 0.00135 | 0.8035 mPa·s | –
303.15 K, x1 = 0.0018 | 0.8126 mPa·s | –
303.15 K, x1 = 0.002 | 0.816 mPa·s | –
303.15 K, x1 = 0.0022 | 0.8155 mPa·s | –
303.15 K, x1 = 0.002695 | 0.8117 mPa·s | –
303.15 K, x1 = 0.0029 | 0.8217 mPa·s | –
303.15 K, x1 = 0.003592 | 0.8207 mPa·s | –
303.15 K, x1 = 0.0063 | 0.8489 mPa·s | –
303.15 K, x1 = 0.0107 | 0.8659 mPa·s | –
303.15 K, x1 = 0.01246 | 0.8788 mPa·s | –
303.15 K, x1 = 0.0129 | 0.8994 mPa·s | –
303.15 K, x1 = 0.0194 | 0.9492 mPa·s | –
303.15 K, x1 = 0.0294 | 1.026 mPa·s | –
303.15 K, x1 = 0.036 | 1.076 mPa·s | –
308.15 K, x1 = 0.00135 | 0.7251 mPa·s | –
308.15 K, x1 = 0.0018 | 0.7276 mPa·s and 0.7355 mPa·s | 0.7365 mPa·s
308.15 K, x1 = 0.0022 | 0.7378 mPa·s | –
308.15 K, x1 = 0.0025 | 0.7407 mPa·s | –
308.15 K, x1 = 0.0029 | 0.7439 mPa·s | –
308.15 K, x1 = 0.003657 | 0.7609 mPa·s and 0.7609 mPa·s | –
308.15 K, x1 = 0.005496 | 0.7659 mPa·s and 0.7659 mPa·s | –
308.15 K, x1 = 0.007374 | 0.7773 mPa·s and 0.7773 mPa·s | –
308.15 K, x1 = 0.0108 | 0.8059 mPa·s and 0.8059 mPa·s | –
308.15 K, x1 = 0.01215 | 0.806 mPa·s and 0.806 mPa·s | –
308.15 K, x1 = 0.01456 | 0.8089 mPa·s and 0.8089 mPa·s | –
313.15 K, x1 = 0.001 | 0.664 mPa·s and 0.6667 mPa·s | –
313.15 K, x1 = 0.00135 | 0.6585 mPa·s | –
313.15 K, x1 = 0.002 | 0.667 mPa·s | –
313.15 K, x1 = 0.0022 | 0.6712 mPa·s | –
313.15 K, x1 = 0.0025 | 0.6739 mPa·s | –
313.15 K, x1 = 0.005375 | 0.6819 mPa·s | –
313.15 K, x1 = 0.0129 | 0.727 mPa·s | –
313.15 K, x1 = 0.0194 | 0.7628 mPa·s | –
313.15 K, x1 = 0.0294 | 0.8179 mPa·s | –
313.15 K, x1 = 0.036 | 0.8542 mPa·s | –
318.15 K, x1 = 0.0002174 | 0.6164 mPa·s and 0.6164 mPa·s | –
318.15 K, x1 = 0.0009 | 0.6007 mPa·s | –
318.15 K, x1 = 0.0018 | 0.6052 mPa·s | –
318.15 K, x1 = 0.001865 | 0.6321 mPa·s | –
318.15 K, x1 = 0.002245 | 0.6076 mPa·s | –
318.15 K, x1 = 0.002695 | 0.6099 mPa·s | –
318.15 K, x1 = 0.005496 | 0.6417 mPa·s | –
318.15 K, x1 = 0.007374 | 0.6579 mPa·s and 0.6579 mPa·s | –
318.15 K, x1 = 0.008976 | 0.6725 mPa·s and 0.6725 mPa·s | –
318.15 K, x1 = 0.0108 | 0.6756 mPa·s and 0.6756 mPa·s | –
318.15 K, x1 = 0.01215 | 0.6757 mPa·s and 0.6757 mPa·s | –
318.15 K, x1 = 0.01456 | 0.6821 mPa·s and 0.6821 mPa·s | –
323.15 K, x1 = 0.0003 | 0.5508 mPa·s | –
323.15 K, x1 = 0.002 | 0.5589 mPa·s | –
323.15 K, x1 = 0.008932 | 0.5878 mPa·s | –
323.15 K, x1 = 0.01246 | 0.6035 mPa·s | –
323.15 K, x1 = 0.0194 | 0.6412 mPa·s | –
323.15 K, x1 = 0.0294 | 0.6885 mPa·s | –
323.15 K, x1 = 0.036 | 0.7197 mPa·s | –

ClC(Cl)=C(Cl)Cl + C1CCCCC1
303.15 K, 101 kPa
Conditions | viscosity [mPa·s]
x1 = 0.1695 | 0.762
x1 = 0.2317 | 0.777
x1 = 0.2698 | 0.75
x1 = 0.3794 | 0.742
x1 = 0.4194 | 0.74
x1 = 0.4306 | 0.75
x1 = 0.4966 | 0.738
x1 = 0.5117 | 0.751
x1 = 0.5532 | 0.741
x1 = 0.5969 | 0.751
x1 = 0.6182 | 0.746
x1 = 0.6612 | 0.758
x1 = 0.7242 | 0.764
x1 = 0.7644 | 0.771
x1 = 0.8345 | 0.775
x1 = 0.8383 | 0.781
x1 = 0.9204 | 0.8

CCCCCCCCCCCCCC + c1ccccc1
Conditions | viscosity [mPa·s]
298 K, 101 kPa, x2 = 0.5 | 1.239
298.15 K, 101 kPa, x1 = 0.1005 | 0.696
298.15 K, 101 kPa, x1 = 0.2025 | 0.803
298.15 K, 101 kPa, x1 = 0.3001 | 0.909
298.15 K, 101 kPa, x1 = 0.3948 | 1.038
298.15 K, 101 kPa, x1 = 0.469 | 1.168
298.15 K, 101 kPa, x1 = 0.5776 | 1.318
298.15 K, 101 kPa, x1 = 0.6954 | 1.468
298.15 K, 101 kPa, x1 = 0.8004 | 1.664
298.15 K, 101 kPa, x1 = 0.9094 | 1.86
298.15 K, 101.33 kPa, x1 = 0.04444 | 0.6498
298.15 K, 101.33 kPa, x1 = 0.09068 | 0.6807
298.15 K, 101.33 kPa, x1 = 0.2125 | 0.8158
298.15 K, 101.33 kPa, x1 = 0.4169 | 1.079
298.15 K, 101.33 kPa, x1 = 0.5121 | 1.221
298.15 K, 101.33 kPa, x1 = 0.6271 | 1.423
298.15 K, 101.33 kPa, x1 = 0.7139 | 1.579
298.15 K, 101.33 kPa, x1 = 0.8006 | 1.716
298.15 K, 101.33 kPa, x1 = 0.8822 | 1.842
303.15 K, 101 kPa, x1 = 0.1005 | 0.653
303.15 K, 101 kPa, x1 = 0.2025 | 0.748
303.15 K, 101 kPa, x1 = 0.3001 | 0.842
303.15 K, 101 kPa, x1 = 0.3948 | 0.961
303.15 K, 101 kPa, x1 = 0.469 | 1.081
303.15 K, 101 kPa, x1 = 0.5776 | 1.211
303.15 K, 101 kPa, x1 = 0.6954 | 1.341
303.15 K, 101 kPa, x1 = 0.8004 | 1.513
303.15 K, 101 kPa, x1 = 0.9094 | 1.684
308.15 K, 101 kPa, x1 = 0.1005 | 0.611
308.15 K, 101 kPa, x1 = 0.2025 | 0.699
308.15 K, 101 kPa, x1 = 0.3001 | 0.786
308.15 K, 101 kPa, x1 = 0.3948 | 0.894
308.15 K, 101 kPa, x1 = 0.469 | 1.002
308.15 K, 101 kPa, x1 = 0.5776 | 1.115
308.15 K, 101 kPa, x1 = 0.6954 | 1.228
308.15 K, 101 kPa, x1 = 0.8004 | 1.384
308.15 K, 101 kPa, x1 = 0.9094 | 1.54
318 K, 101 kPa, x2 = 0.5 | 0.9217

ClC(Cl)=C(Cl)Cl + CC1CCCCC1
303.15 K, 101 kPa
Conditions | viscosity [mPa·s]
x1 = 0.1166 | 0.637
x1 = 0.2246 | 0.648
x1 = 0.3047 | 0.658
x1 = 0.4335 | 0.679
x1 = 0.5554 | 0.708
x1 = 0.6523 | 0.734
x1 = 0.77 | 0.762
x1 = 0.8108 | 0.773
x1 = 0.8864 | 0.79
x1 = 0.9342 | 0.801

CCCCCCCC + Cc1ccccc1
303.15 K, 101.33 kPa
Conditions | viscosity [mPa·s]
x2 = 0.2634 | 0.47
x2 = 0.4184 | 0.464
x2 = 0.8282 | 0.485
x2 = 0.888 | 0.498
x2 = 0.9417 | 0.508
